Molecules are shown by their SMILES. A value given as a limit tells only on which side of the number the result lay.

In one data set the test system is Leishmania donovani. In words: Antiparasitic activity against axenic amastigotes of Leishmania donovani. Type of data set: functional, organism-based.
Data set [1] in a line: Cytotoxicity against rat L6 cells. Type of data set: cell-based. The following applies: read-out: TD50 (the source's name).
The test system of another data set is Trypanosoma cruzi. Kind of data set: Antiparasitic activity against amastigotes of Trypanosoma cruzi. Type of data set: functional, organism-based.
Data set [2] concerns Trypanosoma brucei rhodesiense. Kind of data set: Antiparasitic activity against blood stream form of Trypanosoma brucei rhodesiense. It counts as functional, organism-based.

For orientation: EC50 means the midpoint of the concentration-response curve. `COC(=O)CCCNCCc1ccc(NC(=O)c2ccc(COC(C)=O)cc2)cc1`: the EC50 with Leishmania donovani was 73 µM; with Trypanosoma cruzi it was 141 µM; in data set [2], 11.5 µM. The CC50 in data set [1] is above 218 µM.

On to `COC(=O)CCCNCC1CCN(C(=O)Nc2ccc(COC(C)=O)cc2)C1` (centres undefined), for which the EC50 in the data set on Leishmania donovani was 80 µM; in the data set on Trypanosoma cruzi, above 230 µM; in data set [2], 40 µM. For the same compound, the CC50 in data set [1] was above 230 µM.

Consider `COC(=O)CCCNCc1ccc(NC(=O)c2ccc(COC(C)=O)cc2)cc1`, for which the EC50 came to 2.6 µM in the data set with Leishmania donovani, 207 µM with Trypanosoma cruzi and 78 µM in data set [2]. Moreover, the CC50 in data set [1] came out at 161 µM.

For `COC(=O)CCCCCNCC1CCN(C(=O)Nc2ccc(COC(C)=O)cc2)C1` (centres undefined), the results for the concentration giving a half-maximal response (EC50) (with Leishmania donovani; with Trypanosoma cruzi; in data set [2]) were 41 µM, above 215 µM and 76 µM, respectively. Moreover, the CC50 in data set [1] was above 214 µM.

`CC(=O)OCc1ccc(NC(=O)N2CCC(CO)C2)cc1` (centres undefined): the EC50 in the data set on Leishmania donovani was 26 µM; with Trypanosoma cruzi, above 308 µM; in data set [2], 52 µM. In data set [1], the CC50 is above 308 µM.

Turning to `CC(=O)OCc1ccc(NC(=O)N2CCC(CN3CCCC3=O)C2)cc1` (centres undefined), the EC50 was determined as 30 µM in the data set on Leishmania donovani, 181 µM with Trypanosoma cruzi and 43 µM in data set [2]. Also, the CC50 in data set [1] is above 250 µM.

The values are drawn from ChEMBL document CHEMBL1250554, “Design and preparation of sterol mimetics as potential antiparasitics” (Bioorg Med Chem, 2010).
